How the values were obtained:
MDA-MB-231 cells [1] = tested on: MDA-MB-231 cells; design: method as in PMID 28213701; details: UA 5–20 µM; cited from earlier work
MDA-MB-231 cells [2] = assay: 1H NMR metabolomics of polar (aqueous) cell extracts; type: cell-based, human
Procedure: MDA-MB-231 and MCF-10A cells were seeded in 10-cm-diameter Petri dishes at a density of 6 × 10^5 cells/mL (10 mL per dish) and cultured for 24 h at 37 °C. […] Vehicle solvent control cells received DMSO (0.10% v/v). Samples were collected immediately after 48 h incubation or, to assess cellular recovery, medium was replaced with fresh growth medium (without TAs), and cells were incubated for additional 24 h before collection (48 + 24 h samples). Four independent assays were performed.
After incubation, culture medium was collected and centrifuged (1000× g, 5 min) and the supernatant stored at −80 °C until analysis. Culture medium without cells was placed under the same conditions and collected. Cell extraction was performed as described by Carrola et al.. Briefly, cells were washed four times with PBS and extracted with a mixture of methanol:chloroform:water (1:1:0.7). The resulting polar and organic phases were collected and then dried under vacuum or under a stream of nitrogen gas, respectively. All samples were stored at −80 °C and, at the time of analysis, dried polar extracts were reconstituted in 600 µL of deuterated phosphate buffer (100 mM, pH 7.4) containing 0.1 mM TSP-d4, while organic extracts were reconstituted in deuterated chloroform containing 0.03% TMS. Regarding medium samples, 540 μL were mixed with 60 μL of D2O containing 0.25% TSP-d4. Prior to analysis, 550 μL of each sample were transferred to 5 mm NMR tubes.
^1H NMR spectra of all samples were acquired on a Bruker Avance III HD 500 NMR spectrometer (University of Aveiro, Portuguese NMR Network) operating at 500.13 MHz for ^1H observation equipped with a 5 mm TXI probe. Standard 1D spectra (Bruker pulse programs ‘noesypr1d’, with water suppression, for medium samples and aqueous extracts, and ‘zg’ for organic extracts) were recorded with a 7002.8 Hz spectral width, 32 k data points, a 2 s relaxation delay and 512 scans. Spectral processing comprised exponential multiplication with 0.3 Hz line broadening, zero filling to 64 k data points, manual phasing, baseline correction, and chemical shift calibration to the TSP or TMS signal at 0 ppm. 2D ^1H-^1H total correlation (TOCSY) spectra, ^1H-^13C heteronuclear single quantum correlation (HSQC) spectra and J-resolved spectra were also registered for selected samples to assist spectral assignment. Metabolites were identified with the support of 2D spectra and the spectral reference databases BBIOREFCODE-2-0-0 (Bruker Biospin, Rheinstetten, Germany) and HMDB [28]. Selected signals were then integrated using the AmixViewer software […] (version 3.9.14, Bruker BioSpin, Rheinstetten, Germany) and normalized by the total spectral area. The magnitude of each metabolite change was assessed through the percentage of variation (and its respective error) in exposed samples relatively to controls, and through the effect size (ES) adjusted for small sample numbers (and respective standard error). Metabolite variations with absolute ES greater than 0.8 were expressed in a heatmap, colored as a function of the percentage of variation, employing the R statistical software.

## C[C@H]1[C@H](C)CC[C@]2(C(=O)O)CC[C@]3(C)C(=CC[C@@H]4[C@@]5(C)CC[C@H](O)C(C)(C)[C@@H]5CC[C@]43C)[C@H]12 [UA, ursolic acid]
MDA-MB-231 cells [1]
  expression of glycolytic enzymes (HK2 and PKM2) and ATP content: decreased
MDA-MB-231 cells [2]; UA 10µM, 48h
  ATP %var: 0%
  Acetate %var: 0%
  Ala %var: 0%
  Asp %var: 0%
  Choline %var: -6.23%
  Citrate %var: -23.26%
  Cr %var: 0%
  Fumarate %var: 0%
  GPC %var: 9.94%
  GSH %var: -7.40%
  Gln %var: -13.00%
  Glu %var: 0%
  Gly %var: 0%
  Ile %var: 0%
  Lactate %var: 0%
  Leu %var: 0%
  PC %var: -7.00%
  PCr %var: -13.59%
  Phe %var: 0%
  Pro %var: 0%
  Tau %var: 0%
  Tyr %var: 0%
  Val %var: 0%
  myo-Ino %var: 0%
MDA-MB-231 cells [2]; UA 10µM, 48h+24h
  ATP %var: 0%
  Acetate %var: 0%
  Ala %var: 0.00%
  Asp %var: 0.00%
  Choline %var: 0%
  Citrate %var: -10.99%
  Cr %var: 0%
  Fumarate %var: 0%
  GPC %var: 0%
  GSH %var: 0%
  Gln %var: 0%
  Glu %var: 0%
  Gly %var: -7.50%
  Ile %var: 0%
  Lactate %var: 0%
  Leu %var: 0%
  PC %var: 0%
  PCr %var: 0%
  Phe %var: 0%
  Pro %var: 0%
  Tau %var: 0%
  Tyr %var: 0%
  Val %var: 0%
  myo-Ino %var: 0%
MDA-MB-231 cells [2]; UA 20µM, 48h
  ATP %var: 0%
  Acetate %var: 10.69%
  Ala %var: 0%
  Choline %var: 0%
  Citrate %var: -19.44%
  Cr %var: 0%
  GPC %var: 10.72%
  GSH %var: -7.50%
  Gln %var: 0%
  Glu %var: 0%
  Gly %var: -15.08%
  Ile %var: 0%
  Lactate %var: 0%
  Leu %var: 0%
  PC %var: -6.17%
  PCr %var: -10.77%
  Phe %var: 0%
  Pro %var: 0%
  Tau %var: 11.82%
  Tyr %var: 0%
  Val %var: 0%
  myo-Ino %var: 0%
  number of intracellular polar metabolites consistently altered: 10
MDA-MB-231 cells [2]; UA 20µM, 48h+24h
  ATP %var: -9.33%
  Acetate %var: 11.02%
  Ala %var: -12.11%
  Asp %var: 32.91%
  Choline %var: 0%
  Citrate %var: -15.02%
  Cr %var: 0%
  Fumarate %var: -10.34%
  GPC %var: -6.52%
  GSH %var: -8.79%
  Gln %var: 0%
  Glu %var: 0%
  Gly %var: -25.85%
  Ile %var: 0%
  Lactate %var: 0%
  Leu %var: 0%
  PC %var: 21.66%
  PCr %var: 0%
  Phe %var: 0%
  Pro %var: 0%
  Tau %var: 0%
  Tyr %var: 0%
  Val %var: 0%
  myo-Ino %var: -9.02%
